Data on 25 compounds can be found in patent US8748421B2, “Triazine compounds as P13 kinase and MTOR inhibitors” (Wyeth LLC, priority 2009, dated 2014).

Test [1] deals with PI3K-alpha (Homo sapiens, UniProt P42336). The experiment in a line: PI3K-alpha fluorescence polarization assay. The note with it: read-out: IC50 PI3Kα. (In general: Polarisation of emitted light reports the rotation of a fluorescent probe.)
In test [2] the target is PI3K-gamma (Homo sapiens, UniProt P48736). The experiment in a line: PI3K-gamma fluorescence polarization assay. The note with it: read-out: IC50 PI3Kγ.
PI3K-gamma, sequence (P48736 whole entry, species assumed): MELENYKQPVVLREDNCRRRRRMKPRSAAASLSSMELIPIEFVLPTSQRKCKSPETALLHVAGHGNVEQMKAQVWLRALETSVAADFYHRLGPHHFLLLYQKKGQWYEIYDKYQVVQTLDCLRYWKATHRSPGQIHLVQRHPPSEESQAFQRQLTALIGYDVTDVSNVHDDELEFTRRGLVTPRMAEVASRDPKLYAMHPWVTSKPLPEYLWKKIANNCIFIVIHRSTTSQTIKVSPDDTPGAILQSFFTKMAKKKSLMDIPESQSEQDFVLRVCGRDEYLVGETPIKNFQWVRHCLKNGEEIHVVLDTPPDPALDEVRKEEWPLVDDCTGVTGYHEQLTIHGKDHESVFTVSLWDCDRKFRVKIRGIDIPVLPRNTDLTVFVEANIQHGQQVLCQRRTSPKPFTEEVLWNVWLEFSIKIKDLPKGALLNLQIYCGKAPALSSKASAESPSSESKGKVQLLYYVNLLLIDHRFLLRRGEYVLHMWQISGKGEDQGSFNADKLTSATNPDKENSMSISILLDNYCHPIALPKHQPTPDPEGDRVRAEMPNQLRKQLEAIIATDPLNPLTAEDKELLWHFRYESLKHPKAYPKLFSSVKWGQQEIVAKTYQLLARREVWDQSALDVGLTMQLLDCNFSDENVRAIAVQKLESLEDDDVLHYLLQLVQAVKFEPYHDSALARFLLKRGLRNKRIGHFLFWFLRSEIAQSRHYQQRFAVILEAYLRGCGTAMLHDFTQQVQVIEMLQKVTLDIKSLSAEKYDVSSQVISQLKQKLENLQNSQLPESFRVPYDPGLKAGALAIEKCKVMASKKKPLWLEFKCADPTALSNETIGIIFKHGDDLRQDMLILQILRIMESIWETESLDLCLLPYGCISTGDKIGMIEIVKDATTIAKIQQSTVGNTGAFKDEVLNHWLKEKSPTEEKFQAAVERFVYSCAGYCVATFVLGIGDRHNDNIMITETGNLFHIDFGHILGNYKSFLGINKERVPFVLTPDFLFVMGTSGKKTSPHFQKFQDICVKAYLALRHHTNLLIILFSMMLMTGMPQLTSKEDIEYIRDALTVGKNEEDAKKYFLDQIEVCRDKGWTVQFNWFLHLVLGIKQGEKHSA

PI3K-alpha, sequence (P42336 whole entry, species assumed): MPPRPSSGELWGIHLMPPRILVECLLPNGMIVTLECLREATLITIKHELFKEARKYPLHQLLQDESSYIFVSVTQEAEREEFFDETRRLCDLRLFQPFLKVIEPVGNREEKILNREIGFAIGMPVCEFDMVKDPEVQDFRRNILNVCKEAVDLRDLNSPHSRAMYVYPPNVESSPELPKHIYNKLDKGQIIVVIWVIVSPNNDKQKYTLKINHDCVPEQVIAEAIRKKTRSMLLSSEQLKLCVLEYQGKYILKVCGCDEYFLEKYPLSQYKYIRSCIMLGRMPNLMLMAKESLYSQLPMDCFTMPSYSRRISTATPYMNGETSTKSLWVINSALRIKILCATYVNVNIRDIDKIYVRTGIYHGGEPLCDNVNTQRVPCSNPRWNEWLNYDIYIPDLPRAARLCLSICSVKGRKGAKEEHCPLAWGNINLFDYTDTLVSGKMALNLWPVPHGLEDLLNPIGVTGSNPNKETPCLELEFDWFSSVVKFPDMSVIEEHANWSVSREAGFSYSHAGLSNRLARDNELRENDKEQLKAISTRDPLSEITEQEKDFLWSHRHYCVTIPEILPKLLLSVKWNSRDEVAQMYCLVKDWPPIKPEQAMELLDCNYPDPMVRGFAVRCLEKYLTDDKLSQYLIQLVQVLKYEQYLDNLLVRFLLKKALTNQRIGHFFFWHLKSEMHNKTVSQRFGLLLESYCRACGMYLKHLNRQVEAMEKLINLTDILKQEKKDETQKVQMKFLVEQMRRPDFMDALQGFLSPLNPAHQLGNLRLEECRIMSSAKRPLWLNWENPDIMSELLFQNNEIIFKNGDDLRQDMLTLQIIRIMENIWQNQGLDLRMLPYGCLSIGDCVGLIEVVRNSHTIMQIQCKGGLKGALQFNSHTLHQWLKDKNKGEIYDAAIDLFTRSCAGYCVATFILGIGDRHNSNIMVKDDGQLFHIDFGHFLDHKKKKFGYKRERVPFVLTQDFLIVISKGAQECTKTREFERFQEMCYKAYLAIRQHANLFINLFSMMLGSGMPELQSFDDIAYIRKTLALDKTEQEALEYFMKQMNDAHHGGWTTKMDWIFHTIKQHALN
PI3K-alpha, sequence (P27986 whole entry partner, species assumed): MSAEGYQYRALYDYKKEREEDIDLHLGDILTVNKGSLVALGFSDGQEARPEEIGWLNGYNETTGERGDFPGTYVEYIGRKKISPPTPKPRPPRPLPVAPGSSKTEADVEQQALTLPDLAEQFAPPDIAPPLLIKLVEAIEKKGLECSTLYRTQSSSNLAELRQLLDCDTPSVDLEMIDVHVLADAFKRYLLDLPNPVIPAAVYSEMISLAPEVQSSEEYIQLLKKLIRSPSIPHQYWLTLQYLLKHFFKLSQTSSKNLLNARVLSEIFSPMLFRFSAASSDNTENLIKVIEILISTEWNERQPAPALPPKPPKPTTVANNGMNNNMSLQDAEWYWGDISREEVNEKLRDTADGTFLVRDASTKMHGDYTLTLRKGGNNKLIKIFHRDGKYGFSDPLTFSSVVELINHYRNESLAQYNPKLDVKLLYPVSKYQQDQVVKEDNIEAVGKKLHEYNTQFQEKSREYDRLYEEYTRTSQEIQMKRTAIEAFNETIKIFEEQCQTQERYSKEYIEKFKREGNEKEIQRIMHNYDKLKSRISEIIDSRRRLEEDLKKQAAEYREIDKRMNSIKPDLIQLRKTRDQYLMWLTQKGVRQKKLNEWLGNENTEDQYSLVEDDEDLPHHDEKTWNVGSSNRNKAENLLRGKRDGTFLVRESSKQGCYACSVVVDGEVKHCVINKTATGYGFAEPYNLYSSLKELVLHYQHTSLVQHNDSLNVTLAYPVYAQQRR

A word on the IC50: it is the midpoint of a concentration-inhibition curve. On to `O=C(Nc1ccncc1)Nc1ccc(-c2nc(OC3CNC3)nc(N3CCOCC3)n2)cc1` [Example 835, 1-{4-[4-(azetidin-3-yloxy)-6-morpholin-4-yl-1,3,5-triazin-2-yl]phenyl}-3-pyridin-4-ylurea], for which the half-inhibitory concentration (IC50) in test [1] was found to be 4.15 nM; in test [2], 18.5 nM.

Take `C[C@H]1COCCN1c1nc(-c2ccc(NC(=O)Nc3ccc(C(=O)N4CC[C@@H](N(C)C)C4)cc3)cc2)nc(N2CCOC[C@@H]2C)n1` [Example 842, 1-(4-{4,6-bis[(3S)-3-methylmorpholin-4-yl]-1,3,5-triazin-2-yl}phenyl)-3-(4-{[(3R)-3-(dimethylamino)pyrrolidin-1-yl]carbonyl}phenyl)urea]: the IC50 is 3.55 nM in test [1] and 54.5 nM in test [2].

As to `CC(C)N1CCCN(c2nc(-c3ccc(NC(=O)Nc4ccc(C(=O)N5CCNCC5)cc4)cc3)nc(N3CCOCC3)n2)CC1` [Example 846, 1-(4-{4-(morpholin-4-yl)-6-[4-(propan-2-yl)-1,4-diazepan-1-yl]-1,3,5-triazin-2-yl}phenyl)-3-[4-(piperazin-1-ylcarbonyl)phenyl]urea], the IC50 was 3.5 nM in test [1] and 22.5 nM in test [2].

Turning to `CN1CCN(C(=O)c2ccc(NC(=O)Nc3ccc(-c4nc(C5CCOCC5)nc(N5CCOCC5)n4)cc3)cc2)CC1` [Example 830, 1-{4-[(4-methylpiperazin-1-yl)carbonyl]phenyl}-3-{4-[4-morpholin-4-yl-6-(tetrahydro-2H-pyran-4-yl)-1,3,5-triazin-2-yl]phenyl}urea], in test [1], the IC50 turned out to be 2.12 nM.

Regarding `COCCNC(=O)c1ccc(NC(=O)Nc2ccc(-c3nc(N4CCOCC4)nc(N4CCCN(C(C)C)CC4)n3)cc2)cc1` [Example 860, N-(2-methoxyethyl)-4-{[(4-{4-(morpholin-4-yl)-6-[4-(propan-2-yl)-1,4-diazepan-1-yl]-1,3,5-triazin-2-yl}phenyl)carbamoyl]amino}benzamide], the IC50 in test [1] came to 57 nM; in test [2], 434 nM.

Turning to “1-[4-(4,6-dimorpholin-4-yl-1,3,5-triazin-2-yl)phenyl]-3-[3-(1-hydroxyethyl)phenyl]urea [Example 88]”, the values for the IC50 in test [1] and in test [2] were 8 nM and 74 nM, respectively.

With `CC(C)N1CCCN(c2nc(-c3ccc(NC(=O)Nc4ccc(C(=O)N5CC[C@H](N(C)C)C5)cc4)cc3)nc(N3CCOC[C@@H]3C)n2)CC1` [Example 856, 1-(4-{[(3S)-3-(dimethylamino)pyrrolidin-1-yl]carbonyl}phenyl)-3-(4-{4-[(3S)-3-methylmorpholin-4-yl]-6-[4-(propan-2-yl)-1,4-diazepan-1-yl]-1,3,5-triazin-2-yl}phenyl)urea], the IC50 in test [1] worked out at 28.5 nM; in test [2] it was 532 nM.

Take `CC(C)N1CCCN(c2nc(-c3ccc(NC(=O)Nc4ccc(C(=O)N(C)CCN(C)C)cc4)cc3)nc(N3CCOC[C@@H]3C)n2)CC1` [Example 854, N-[2-(dimethylamino)ethyl]-N-methyl-4-{[(4-{4-[(3S)-3-methylmorpholin-4-yl]-6-[4-(propan-2-yl)-1,4-diazepan-1-yl]-1,3,5-triazin-2-yl}phenyl)carbamoyl]amino}benzamide]: the 50% inhibitory concentration (IC50) came out at 8.84 nM in test [1] and 164 nM in test [2].

Regarding `C[C@H]1CN(C(=O)c2ccc(NC(=O)Nc3ccc(-c4nc(C5CCOCC5)nc(N5CCOCC5)n4)cc3)cc2)CCN1C` [Example 866, 1-(4-{[(3S)-3,4-dimethylpiperazin-1-yl]carbonyl}phenyl)-3-{4-[4-(morpholin-4-yl)-6-(tetrahydro-2H-pyran-4-yl)-1,3,5-triazin-2-yl]phenyl}urea], the half-inhibitory concentration (IC50) in test [1] amounted to 1.6 nM; in test [2], 16.5 nM.

For `CC(C)N1CCCN(c2nc(-c3ccc(NC(=O)Nc4ccc(C(=O)N(C)CCN(C)C)cc4)cc3)nc(N3CCOCC3)n2)CC1` [Example 858, N-[2-(dimethylamino)ethyl]-N-methyl-4-{[(4-{4-(morpholin-4-yl)-6-[4-(propan-2-yl)-1,4-diazepan-1-yl]-1,3,5-triazin-2-yl}phenyl)carbamoyl]amino}benzamide], the results for the half-inhibitory concentration (IC50) in test [1] and in test [2] were 5 nM and 134 nM, respectively.

For the compound `CC(C)N1CCCN(c2nc(-c3ccc(NC(=O)Nc4ccc(C(=O)N5CC[C@H](N(C)C)C5)cc4)cc3)nc(N3CCOCC3)n2)CC1` [Example 843, 1-(4-{[(3S)-3-(dimethylamino)pyrrolidin-1-yl]carbonyl}phenyl)-3-(4-{4-(morpholin-4-yl)-6-[4-(propan-2-yl)-1,4-diazepan-1-yl]-1,3,5-triazin-2-yl}phenyl)urea], the IC50 in test [1] was determined as 28.5 nM; in test [2], 291 nM.

As for `CC(C)N1CCN(C(=O)c2ccc(NC(=O)Nc3ccc(-c4nc(C5CCOCC5)nc(N5CCOCC5)n4)cc3)cc2)CC1` [Example 833, 1-(4-{[4-(1-methylethyl)piperazin-1-yl]carbonyl}phenyl)-3-{4-[4-morpholin-4-yl-6-(tetrahydro-2H-pyran-4-yl)-1,3,5-triazin-2-yl]phenyl}urea], the IC50 was determined as 2.58 nM in test [1] and 8.25 nM in test [2].

In the case of `C[C@@H]1CN(C(=O)c2ccc(NC(=O)Nc3ccc(-c4nc(N5CCOCC5)nc(N5CCOCC5)n4)cc3)cc2)CCN1C` [Example 850, 1-(4-{[(3R)-3,4-dimethylpiperazin-1-yl]carbonyl}phenyl)-3-{4-[4,6-di(morpholin-4-yl)-1,3,5-triazin-2-yl]phenyl}urea], the values for the half-inhibitory concentration (IC50) in test [1] and in test [2] were 0.65 nM and 6.1 nM, respectively.

For the compound `CC(C)N1CCCN(c2nc(-c3ccc(NC(=O)Nc4ccc(C(=O)NCCCN(C)C)cc4)cc3)nc(N3CCOCC3)n2)CC1` [Example 857, N-[3-(dimethylamino)propyl]-4-{[(4-{4-(morpholin-4-yl)-6-[4-(propan-2-yl)-1,4-diazepan-1-yl]-1,3,5-triazin-2-yl}phenyl)carbamoyl]amino}benzamide], the half-inhibitory concentration (IC50) in test [1] came to 10 nM; in test [2], 146 nM.

For `CC(C)NC(=O)N1CC(Oc2nc(-c3ccc(NC(=O)Nc4ccncc4)cc3)nc(N3CCOCC3)n2)C1` [Example 836, N-(1-methylethyl)-3-[(4-morpholin-4-yl-6-{4-[(pyridin-4-ylcarbamoyl)amino]phenyl}-1,3,5-triazin-2-yl)oxy]azetidine-1-carboxamide], the concentration for half-maximal inhibition (IC50) was determined as 5 nM in test [1] and 17.5 nM in test [2].

For the compound `CC(C)N1CCCN(c2nc(-c3ccc(NC(=O)Nc4ccc(C(=O)N5CCOCC5)cc4)cc3)nc(N3CCOCC3)n2)CC1` [Example 859, 1-[4-(morpholin-4-ylcarbonyl)phenyl]-3-(4-{4-(morpholin-4-yl)-6-[4-(propan-2-yl)-1,4-diazepan-1-yl]-1,3,5-triazin-2-yl}phenyl)urea], the IC50 in test [1] turned out to be 17.9 nM; in test [2], 240 nM.

Take `CCN(CC)CCOC(=O)c1ccc(NC(=O)Nc2ccc(-c3nc(N4CCOCC4)nc(N4C5CCC4COC5)n3)cc2)cc1` [Example 675, 2-(diethylamino)ethyl 4-[({4-[4-morpholin-4-yl-6-(3-oxa-8-azabicyclo[3.2.1]oct-8-yl)-1,3,5-triazin-2-yl]phenyl}carbamoyl)amino]benzoate]: the IC50 amounted to 21 nM in test [1] and 136 nM in test [2].

Consider `CC(C)N1CCCN(c2nc(-c3ccc(NC(=O)Nc4ccc(C(=O)N5CCCNCC5)cc4)cc3)nc(N3CCOCC3)n2)CC1` [Example 861, 1-[4-(1,4-diazepan-1-ylcarbonyl)phenyl]-3-(4-{4-(morpholin-4-yl)-6-[4-(propan-2-yl)-1,4-diazepan-1-yl]-1,3,5-triazin-2-yl}phenyl)urea], for which the results for the IC50 in test [1] and in test [2] were 4 nM and 56 nM, respectively.

Take `C[C@H]1COCCN1c1nc(-c2ccc(NC(=O)Nc3ccc(C(=O)N4C5CCC4COC5)cc3)cc2)nc(N2CCOC[C@@H]2C)n1` [Example 839, 1-(4-{4,6-bis[(3S)-3-methylmorpholin-4-yl]-1,3,5-triazin-2-yl}phenyl)-3-[4-(3-oxa-8-azabicyclo[3.2.1]oct-8-ylcarbonyl)phenyl]urea]: the 50% inhibitory concentration (IC50) is 6.65 nM in test [1] and 29 nM in test [2].

As to `Cc1ccc(NC(=O)Nc2ccc(-c3nc(NC4CN(C(=O)OC(C)(C)C)C4)nc(N4CCOCC4)n3)cc2)cc1` [Example 16, tert-butyl 3-{[4-(4-{[(4-methylphenyl)carbamoyl]amino}phenyl)-6-morpholin-4-yl-1,3,5-triazin-2-yl]amino}azetidine-1-carboxylate], the 50% inhibitory concentration (IC50) in test [2] was more than 100000 nM.

As to `C[C@H]1CN(C(=O)c2ccc(NC(=O)Nc3ccc(-c4nc(N5CCOCC5)nc(N5CCOCC5)n4)cc3)cc2)CCN1C` [Example 864, 1-(4-{[(3S)-3,4-dimethylpiperazin-1-yl]carbonyl}phenyl)-3-{4-[4,6-di(morpholin-4-yl)-1,3,5-triazin-2-yl]phenyl}urea], the IC50 in test [1] stood at 1 nM; in test [2] it was 7.5 nM.

In the case of `CN1CCN(c2ccc(NC(=O)Nc3ccc(-c4nc(-c5ccc(NC(=O)NC6CC6)cc5)nc(N5CC6CCC(C5)O6)n4)cc3)cc2)CC1` [Example 146, 1-cyclopropyl-3-(4-{4-[4-({[4-(4-methylpiperazin-1-yl)phenyl]carbamoyl}amino)phenyl]-6-(8-oxa-3-azabicyclo[3.2.1]oct-3-yl)-1,3,5-triazin-2-yl}phenyl)urea], in test [2], the IC50 was more than 100000 nM.

Take `COc1ccc(NC(=O)Nc2ccc(-c3nc(N4CCOCC4)nc(N4CCOCC4)n3)cc2)c(OC)c1` [Example 7, 1-(2,4-dimethoxyphenyl)-3-[4-(4,6-dimorpholin-4-yl-1,3,5-triazin-2-yl)phenyl]-urea]: in test [2], the concentration for half-maximal inhibition (IC50) was more than 100000 nM.

Consider `C[C@H]1COCCN1c1nc(-c2ccc(NC(=O)Nc3ccc(C(=O)N4CC[C@H](N(C)C)C4)cc3)cc2)nc(N2CCOC[C@@H]2C)n1` [Example 841, 1-(4-{4,6-bis[(3S)-3-methylmorpholin-4-yl]-1,3,5-triazin-2-yl}phenyl)-3-(4-{[(3S)-3-(dimethylamino)pyrrolidin-1-yl]carbonyl}phenyl)urea], for which the IC50 in test [2] was found to be 108 nM.

Consider `CN(C)[C@@H]1CCN(C(=O)c2ccc(NC(=O)Nc3ccc(-c4nc(N5CCOCC5)nc(N5CCOCC5)n4)cc3)cc2)C1` [Example 831, 1-(4-{[(3R)-3-(dimethylamino)pyrrolidin-1-yl]carbonyl}phenyl)-3-[4-(4,6-dimorpholin-4-yl-1,3,5-triazin-2-yl)phenyl]urea], for which the half-maximal inhibitory concentration (IC50) in test [1] was determined as 0.95 nM.
